Measured values taken from DBAASP.
Values after ≈ are worked out from the molar mass of the structure shown. Values joined by “and” are separate entries in the source; they are usually repeats but may differ in a detail not shown here. Equal entries are not always repeated.

Assays:
Experiment in all cases: ≥ marks a high value that may be exact or a test limit, other limits are often not marked, values filed in µg/mL are converted to µM
Escherichia coli K-12 = system: Escherichia coli K-12
[1] = system: Staphylococcus aureus ATCC 25923
[2] = system: Candida albicans ATCC 90028
Acinetobacter baumannii = system: Acinetobacter baumannii
[3] = system: Escherichia coli ATCC 25726
[4] = system: Micrococcus luteus CCM 144
[5] = system: Candida albicans F7-39/IDE99
Escherichia coli B = system: Escherichia coli B
Staphylococcus aureus = system: Staphylococcus aureus
Bacillus subtilis 168 = system: Bacillus subtilis 168
Pseudomonas aeruginosa = system: Pseudomonas aeruginosa
Streptococcus mutans = system: Streptococcus mutans
[6] = system: Pseudomonas aeruginosa ATCC 27853
Enterococcus faecalis = system: Enterococcus faecalis
Escherichia coli BW25113 = system: Escherichia coli BW25113
Enterococcus faecium = system: Enterococcus faecium

Compound: CC[C@H](C)[C@H](NC(=O)[C@H](CCCN=C(N)N)NC(=O)[C@H](CCC(N)=O)NC(=O)[C@@H](NC(=O)[C@@H](NC(=O)[C@H](CCC(N)=O)NC(=O)[C@H](C)N)[C@@H](C)CC)C(C)C)C(=O)N[C@@H](CCCCN)C(=O)N[C@@H](CC(=O)O)C(=O)N[C@@H](Cc1ccccc1)C(=O)N[C@@H](CC(C)C)C(=O)N[C@@H](CCCN=C(N)N)C(N)=O [AQIVQRIKDFLR]
- MIC (Escherichia coli K-12): ≥ 240 µM

Compound: CC[C@H](C)[C@H](NC(=O)CN)C(=O)N[C@@H](Cc1c[nH]c2ccccc12)C(=O)N[C@@H](CC(=O)O)C(=O)N[C@H](C(=O)N[C@H](C(=O)N[C@@H](CCCCN)C(=O)N[C@@H](CO)C(=O)N[C@@H](CCSC)C(=O)NCC(=O)N[C@@H](CCCCN)C(=O)N[C@H](C(=O)N[C@@H](Cc1ccccc1)C(=O)N[C@@H](C)C(=O)NCC(=O)N[C@@H](CC(C)C)C(=O)N[C@H](C(=O)N[C@@H](CC(C)C)C(=O)N[C@@H](CCC(N)=O)C(=O)N[C@@H](CC(N)=O)C(=O)N[C@@H](CC(C)C)C(N)=O)[C@@H](C)CC)C(C)C)[C@@H](C)CC)[C@@H](C)O [GIWDTIKSMGKVFAGLILQNL]
- MIC [1]: 25 µM (≈ 57.6 µg/mL)
- MIC [2]: 12.5 µM (≈ 28.8 µg/mL)
- MIC (Acinetobacter baumannii): 25 µM (≈ 57.6 µg/mL)
- MIC [3]: ≥ 100 µM

Compound: CC[C@H](C)[C@H](NC(=O)[C@H](CC(C)C)NC(=O)[C@H](CCCCN)NC(=O)[C@@H](NC(=O)[C@@H](NC(=O)[C@H](Cc1cnc[nH]1)NC(=O)[C@@H]1CCCN1C(=O)[C@H](CC(C)C)NC(=O)[C@@H](NC(=O)[C@H](CCCCN)NC(=O)[C@H](C)NC(=O)[C@H](CC(C)C)NC(=O)[C@H](CC(C)C)NC(=O)[C@H](CO)NC(=O)[C@H](C)NC(=O)[C@H](CCSC)NC(=O)CN)C(C)C)C(C)C)C(C)C)C(=O)N[C@@H](CCCCN)C(N)=O [GMASLLAKVLPHVVKLIK]
- MIC [4]: 1.7 µM (≈ 3.26 µg/mL)
- MIC [5]: 25 µM (≈ 47.9 µg/mL)
- MIC (Escherichia coli B): 3.7 µM (≈ 7.09 µg/mL)
- MIC (Staphylococcus aureus): 3.7 µM (≈ 7.09 µg/mL)
- MIC (Bacillus subtilis 168): 2.5 µM (≈ 4.79 µg/mL)
- MIC (Pseudomonas aeruginosa): 31.7 µM (≈ 60.8 µg/mL)

Compound: CC[C@H](C)[C@H](N)C(=O)NCC(=O)N[C@@H](CC(C)C)C(=O)N[C@@H](CCCN=C(N)N)C(=O)NCC(=O)N[C@@H](CC(C)C)C(=O)NCC(=O)N[C@@H](CCCN=C(N)N)C(=O)N[C@@H](CCCCN)C(=O)N[C@H](C(=O)N[C@@H](C)C(=O)N[C@@H](CC(C)C)C(=O)N[C@H](C(=O)N[C@@H](Cc1cnc[nH]1)C(=O)N[C@@H](CCCCN)C(=O)N[C@@H](CCCCN)C(=O)N[C@@H](Cc1ccc(O)cc1)C(=O)NCC(=O)O)[C@@H](C)CC)[C@@H](C)CC [IGLRGLGRKIALIHKKYG]
- MIC (Bacillus subtilis 168): ≥ 120 µM
- MIC (Escherichia coli K-12): ≥ 120 µM

Compound: CC(C)C[C@H](NC(=O)[C@H](CC(C)C)NC(=O)[C@H](CCCCN)NC(=O)[C@H](CCCCN)NC(=O)[C@H](CC(C)C)NC(=O)[C@@H](N)CCCCN)C(=O)N[C@@H](CCCCN)C(=O)N[C@@H](CCCN=C(N)N)C(=O)N[C@@H](Cc1c[nH]c2ccccc12)C(=O)N[C@@H](CCCN=C(N)N)C(=O)N[C@@H](CCCN=C(N)N)C(=O)N[C@@H](Cc1c[nH]c2ccccc12)C(=O)N[C@@H](Cc1c[nH]c2ccccc12)C(=O)N[C@@H](CCCN=C(N)N)C(=O)O [KLKKLLKRWRRWWR]
- MIC (Streptococcus mutans): 3.9 µM (≈ 8 µg/mL)

Compound: CC[C@H](C)[C@H](NC(=O)[C@H](CCCCN)NC(=O)CNC(=O)[C@H](Cc1c[nH]c2ccccc12)NC(=O)[C@H](CC(N)=O)NC(=O)[C@@H](N)CCCCN)C(=O)N[C@@H](CC(C)C)C(=O)N[C@@H](CCCCN)C(=O)N[C@@H](Cc1cnc[nH]1)C(=O)N[C@H](C(=O)N[C@H](C(=O)N[C@@H](CCCCN)C(N)=O)[C@@H](C)CC)[C@@H](C)CC [KNWGKILKHIIK]
- MIC [4]: 4.5 µM (≈ 6.65 µg/mL)
- MIC [5]: 7.7 µM (≈ 11.4 µg/mL)
- MIC (Escherichia coli B): 11.3 µM (≈ 16.7 µg/mL)
- MIC (Staphylococcus aureus): 76.7 µM (≈ 113 µg/mL)
- MIC (Bacillus subtilis 168): 5.8 µM (≈ 8.57 µg/mL)
- MIC (Pseudomonas aeruginosa): 31.7 µM (≈ 46.8 µg/mL)

Compound: CC[C@H](C)[C@@H]1NC(=O)[C@H](CCCCN)NC(=O)[C@H](CCCCN)NC(=O)[C@@H]2CSSC[C@H](NC(=O)[C@H](C)NC(=O)[C@H](C(C)C)NC(=O)[C@@H](NC(=O)[C@@H](NC(=O)[C@@H](NC(=O)[C@H](CCCCN)NC(=O)[C@H](CCCCN)NC(=O)[C@@H](NC(=O)[C@H](CC(=O)O)NC(=O)[C@@H](N)CC(C)C)C(C)C)[C@@H](C)CC)[C@@H](C)CC)CSSC[C@@H](C(=O)N3CCC[C@H]3C(=O)N[C@@H](CCCCN)C(=O)O)NC1=O)C(=O)N[C@@H](CCCCN)C(=O)N[C@@H]([C@@H](C)CC)C(=O)N[C@@H](CCCN=C(N)N)C(=O)N1CCC[C@H]1C(=O)N[C@@H](CC(N)=O)C(=O)N1CCC[C@H]1C(=O)N[C@@H](C)C(=O)N2 [LDVKKIICVACKIRPNPACKKICPK]
- MIC [4]: 0.8 µM (≈ 2.22 µg/mL)
- MIC [5]: 18.7 µM (≈ 52 µg/mL)
- MIC (Escherichia coli B): ≥ 32.5 µM
- MIC (Staphylococcus aureus): > 100 µM
- MIC (Bacillus subtilis 168): 1.5 µM (≈ 4.17 µg/mL)
- MIC (Pseudomonas aeruginosa): > 100 µM

Compound: CC[C@H](C)[C@H](NC(=O)[C@H](C)NC(=O)[C@H](CCCCN)NC(=O)[C@H](CC(C)C)NC(=O)[C@H](CCCCN)NC(=O)[C@@H](N)CC(C)C)C(=O)N[C@@H](C)C(=O)N[C@@H](C)C(=O)N[C@@H](CC(C)C)C(=O)N[C@@H](C)C(=O)N[C@@H](CCCCN)C(=O)N[C@@H](CCCCN)C(=O)N[C@@H](CCCCN)C(=O)N[C@@H](Cc1c[nH]c2ccccc12)C(N)=O [LKLKAIAALAKKKW]
- MIC [6]: 40.5 µM and > 20.2 µM
- MIC (Staphylococcus aureus): 15.2 µM (≈ 24 µg/mL)
- MIC (Acinetobacter baumannii): 5.06 µM (≈ 8 µg/mL)
- MIC (Enterococcus faecalis): 7.59 µM (≈ 12 µg/mL)
- MIC (Pseudomonas aeruginosa): 10.1 µM (≈ 16 µg/mL)

Compound: CC[C@H](C)[C@H](NC(=O)[C@@H]1CCCN1C(=O)[C@H](CCCN=C(N)N)NC(=O)[C@H](CCCN=C(N)N)NC(=O)[C@H](Cc1ccccc1)NC(=O)[C@@H](N)CCCN=C(N)N)C(=O)N[C@@H](CCCN=C(N)N)C(=O)N[C@@H](CCCN=C(N)N)C(=O)N1CCC[C@H]1C(=O)N1CCC[C@H]1C(=O)N[C@H](C(=O)N[C@@H](CCCN=C(N)N)C(=O)N1CCC[C@H]1C(=O)N1CCC[C@H]1C(=O)N[C@@H](Cc1ccccc1)C(=O)N[C@@H](Cc1ccc(O)cc1)C(=O)N1CCC[C@H]1C(=O)O)[C@@H](C)CC [RFRRPIRRPPIRPPFYP]
- MIC (Escherichia coli BW25113): 4 µM (≈ 8.89 µg/mL)

Compound: CC[C@H](C)[C@H](NC(=O)[C@@H]1CCCN1C(=O)[C@H](Cc1c[nH]c2ccccc12)NC(=O)[C@H](CCCN=C(N)N)NC(=O)[C@H](Cc1ccccc1)NC(=O)[C@@H](N)CCCN=C(N)N)C(=O)N[C@@H](CCCN=C(N)N)C(=O)N[C@@H](CCCN=C(N)N)C(=O)N[C@@H](CCCN=C(N)N)C(=O)N1CCC[C@H]1C(=O)N[C@H](C(=O)N[C@@H](CCCN=C(N)N)C(=O)N1CCC[C@H]1C(=O)N1CCC[C@H]1C(=O)N[C@@H](Cc1ccccc1)C(=O)N[C@@H](Cc1ccc(O)cc1)C(=O)N[C@@H](CCCN=C(N)N)C(=O)O)[C@@H](C)CC [RFRWPIRRRPIRPPFYR]
- MIC (Escherichia coli BW25113): 8 µM (≈ 19 µg/mL)

Compound: C[C@H](NC(=O)[C@H](CO)NC(=O)[C@H](C)NC(=O)[C@H](Cc1ccccc1)NC(=O)[C@H](Cc1c[nH]c2ccccc12)NC(=O)[C@H](Cc1c[nH]c2ccccc12)NC(=O)[C@H](Cc1c[nH]c2ccccc12)NC(=O)[C@H](CCCN=C(N)N)NC(=O)[C@H](CCCN=C(N)N)NC(=O)[C@@H](N)CCCN=C(N)N)C(=O)N[C@@H](CO)C(=O)N[C@@H](C)C(=O)N[C@@H](CCCN=C(N)N)C(=O)N[C@@H](CCCN=C(N)N)C(=O)N[C@@H](CCCN=C(N)N)C(=O)N[C@@H](Cc1c[nH]c2ccccc12)C(=O)N[C@@H](Cc1c[nH]c2ccccc12)C(=O)N[C@@H](Cc1c[nH]c2ccccc12)C(=O)N[C@@H](Cc1ccccc1)C(N)=O [RRRWWWFASASARRRWWWF]
- MIC (Streptococcus mutans): 11.6 µM (≈ 32 µg/mL)

Compound: CC(C)C[C@H](NC(=O)[C@H](CC(C)C)NC(=O)[C@H](CC(C)C)NC(=O)[C@H](CC(C)C)NC(=O)[C@H](CC(C)C)NC(=O)[C@H](CCCN=C(N)N)NC(=O)[C@H](Cc1c[nH]c2ccccc12)NC(=O)[C@@H](N)CCCN=C(N)N)C(=O)N[C@@H](CCCCN)C(=O)N[C@@H](CCCN=C(N)N)C(=O)N[C@@H](Cc1cnc[nH]1)C(=O)O [RWRLLLLLKRH]
- MIC (Enterococcus faecalis): 23.5 µM (≈ 35.4 µg/mL)
- MIC (Enterococcus faecium): 23.5 µM (≈ 35.4 µg/mL)

Compound: CC[C@H](C)[C@H](NC(=O)[C@@H]1CCCN1C(=O)[C@H](CCCN=C(N)N)NC(=O)[C@H](CCCN=C(N)N)NC(=O)[C@H](CCCN=C(N)N)NC(=O)[C@H](Cc1c[nH]c2ccccc12)NC(=O)[C@@H]1CCCN1C(=O)[C@H](CCCN=C(N)N)NC(=O)[C@H](CCCN=C(N)N)NC(=O)[C@H](Cc1c[nH]c2ccccc12)NC(=O)[C@@H](N)CCCN=C(N)N)C(=O)N[C@@H](CCCN=C(N)N)C(=O)N1CCC[C@H]1C(=O)N1CCC[C@H]1C(=O)N[C@@H](Cc1ccccc1)C(=O)N[C@@H](Cc1ccc(O)cc1)C(=O)N[C@@H](CCCN=C(N)N)C(=O)O [RWRRPWRRRPIRPPFYR]
- MIC (Escherichia coli BW25113): 8 µM (≈ 19.6 µg/mL)

Compound: CC[C@H](C)[C@H](NC(=O)[C@@H]1CCCN1C(=O)[C@H](Cc1c[nH]c2ccccc12)NC(=O)[C@H](CCCN=C(N)N)NC(=O)[C@H](Cc1c[nH]c2ccccc12)NC(=O)[C@@H](N)CCCN=C(N)N)C(=O)N[C@@H](CCCN=C(N)N)C(=O)N[C@@H](CCCN=C(N)N)C(=O)N[C@@H](CCCN=C(N)N)C(=O)N1CCC[C@H]1C(=O)N[C@H](C(=O)N[C@@H](CCCN=C(N)N)C(=O)N1CCC[C@H]1C(=O)N1CCC[C@H]1C(=O)N[C@@H](Cc1ccccc1)C(=O)N[C@@H](Cc1c[nH]c2ccccc12)C(=O)N[C@@H](CCCN=C(N)N)C(=O)O)[C@@H](C)CC [RWRWPIRRRPIRPPFWR]
- MIC (Escherichia coli BW25113): 4 µM (≈ 9.73 µg/mL)
